Results from patent US20230173295A1, “Systems, Devices, and Methods for Gamma Entrainment using Sensory Stimuli to Alleviate Cognitive Deficits and/or Neuroinflammation Induced by Chemotherapy Agents” (Massachusetts Institute of Technology, priority 2020, published 2023).
Entries after “also recorded” stand apart in the source; their conditions may differ.

Assays:
[1] = tested on: C57/BL6J male mouse; assay: MTX induced chemo brain model: novel object recognition (NOR); format: in vivo; details: MTX without GENUS
Description: Animals were habituated in an OFT box for 10 min, 3 consecutive days. On the 4th day, two identical wooden blocks (Premium wooden building blocks set, Cubbie Lee) were placed in the chamber, and animals were allowed to explore the objects for 5 min, then the animals were returned to their home cage for 5 min. In the test phase, one of the wooden block is switched to a novel wooden block with a different shape, and the time spent exploring the familiar and new object was measured for 10 min. Discrimination ratio was calculated as time spent to explore the new object divided by the sum of time spent to explore both old and new object.
(§1) OFT, MWM behavior was tracked with a behavior tracking software (EthoVision XT, Nodulus). NOR and puzzle box behavior was scored by manual counting. Zeiss LSM 710 and Zeiss LSM 880 confocal microscope with Zen software was used to capture fluorescence images. A 3D image analysis software (IMARIS, Bitplane) was used to score Iba1 and GFAP positive voxels, and the area covered by MBP, ventricle size and cell number counting was scored with ImageJ software. Researcher was blinded for the experimental group during data analysis.

[2] = tested on: C57/BL6J male mouse; assay: MTX induced chemo brain model: puzzle box test; format: in vivo; details: MTX treatment
Description: Animals were placed in a testing arena containing a lighted (55 cm×28 cm) and a dark (15 cm×28 cm) compartment with a connecting tunnel (4 cm×4 cm×2.5 cm), facing the farthest wall from the dark compartment. 3 trials were performed for 3 days. 1 introductory period without any obstacles blocking the tunnel and 2 ‘easy task’ in which animals have to pass a corridor (4 cm×4 cm×12 cm). On day 2, 1 ‘easy task’ and 2 ‘intermediate task’ in which the corridor is blocked with sawdust and the animals have to dig through to reach the dark chamber were performed. On day 3, 1 ‘intermediate task’ and 2 ‘hard task’ where the tunnel was plugged with a tissue were performed. Time of the first entry to the dark chamber was recorded for every trials.
as §1

[3] = tested on: C57/BL6J male mouse; assay: MTX induced chemo brain model: immunohistochemistry of brain slices; format: in vivo; details: MTX NS
Description: 30˜40 μm thick vibratome sectioned brain slices were washed in PBS, then incubated in a blocking solution (3% normal donkey serum (Millipore Sigma, S30-M) and 0.3% Triton X-100 (Sigma-Aldrich, T8787-100ML) in PBS) for 2 hrs. Then, slices were treated with a blocking solution containing α-Iba1 (1:500, Abcam, ab178846), α-GFAP (1:1000, Novus Biologicals, NBP1-05198), α-MBP (1:500, Millipore, AB9348), α-yH2AX (1:500, EMD Millipore, 05-636), α-Iba1 (1:500, SYSY, 234004), α-Olig2 (1:200, Abcam, ab109186), α-Pdgfra (1:100, Abcam, ab90967) and α-Dcx (1:500, Cell signaling technology, 4604S) in a 4° C.-10° C. controlled cold room for 2 overnight. […]
OFT, MWM behavior was tracked with a behavior tracking software (EthoVision XT, Nodulus). NOR and puzzle box behavior was scored by manual counting. Zeiss LSM 710 and Zeiss LSM 880 confocal microscope with Zen software was used to capture fluorescence images. A 3D image analysis software (IMARIS, Bitplane) was used to score Iba1 and GFAP positive voxels, and the area covered by MBP, ventricle size and cell number counting was scored with ImageJ software. […]

[4] = tested on: C57/BL6J male mouse; assay: MTX induced chemo brain model: Morris water maze (MWM) test; format: in vivo
Description: A circular cylinder with 122 cm diameter was filled with tap water (22° C.-24° C.) and a white paint was added to make the water opaque. The area was divided into 4 equal quardrants and a 10 cm diameter platform was placed in the center of the target quardrant (TQ), the platform being 1 inch lower than the water level. On the first day of training, animals were placed on the platform for 30 seconds, and then retrieved from the water (priming). After 1 minute of priming, animals were placed into the chamber facing the chamber wall. Time to reach the platform was measured when the animal was sitting on the platform for >1s. For 5 consecutive days, animals performed two trials, spaced 1 min. After 5 days of training, the platform was removed from the chamber, and the animals were placed in the center of the chamber. For 1 min duration, time spent in TQ were measured Novel Object Recognition (NOR)
as §1

[5] = tested on: C57/BL6J male mouse; assay: MTX induced chemo brain model: open field test (OFT); format: in vivo; details: MTX vs PBS
Description: Animals were placed in the center of 45×45 cm×40 cm (W×L×H) white acrylic box and their movement were tracked with a behavior tracking software (EthoVision XT, nodulus) for 10 min. 22.5 cm×22.5 cm area in the center of the box was marked as ‘center area’.
as §1

[6] = tested on: C57/BL6J male mouse; assay: MTX induced chemo brain model: survival rate and body weight; details: 100 mg/kg MTX i.p.
Description: P21 C57/BL6J male mouse received i.p. injection of either 100 mg/kg MTX or volume-matched PBS on P21, P28, P35 (i.e., 21 days after birth/21 days old, 28 days old, 35 days old) (FIG. 1A). Stim (S) group received 1 hr of 40 Hz audio+visual sensory stimulation immediately after the first injection, and then received 1 hr stimulation every day after that day's injection until the day before they were sacrificed. No stim (NS) group stayed under a dim light for 1 hr immediately after the first injection, and then stayed under a dim light for 1 hr every day until the day before they were sacrificed. Every animal was single-caged in a caged covered with a black-plastic bag on every wall but one side for the duration of 1 hr stim/sham period and then group housed with their littermates.
Another chemotherapeutic agent, methotrexate (MTX)-induced chemo brain animals were tested.

For CN(Cc1cnc2nc(N)nc(N)c2n1)c1ccc(C(=O)N[C@@H](CCC(=O)O)C(=O)O)cc1 [MTX, methotrexate], the “NOR: time exploring novel and familiar object” value [1] was “spent comparable time exploring noble and familiar object”, the “puzzle box test performance” value [2] was “cognitive impairment” and the “Iba1 signal in corpus callosum” value [3] was “dramatically increased; also recorded: significantly higher”. The “MWM performance: swimming speed, spatial learning and memory” value ([4]; PBS NS, MTX NS, PBS S, MTX S) was “comparable performance in swimming speed, spatial learning and memory”, the MWM learning curve ([4]; mouse, in vivo) was “neither MTX nor GENUS altered learning curve” and the MWM swimming speed ([4]; mouse, in vivo) was “neither MTX nor GENUS altered swimming speed”. The “locomotion in OFT” value [5] was “neither GENUS nor methotrexate (MTX) treatment affected locomotion”, the “time spent in center area during OFT” value [5] was “GENUS but not MTX significantly increased time spent in center area” and the survival rate ([6]; 1 week after the first administration) was roughly 60%. It also gave a lethality ([6]; within 1 week after the first MTX injection) of 40%.
